Test results as given in ChEMBL document CHEMBL5385942, “C3-Symmetric ligands in drug design: An overview of the challenges and opportunities ahead” (Bioorg Med Chem Lett, 2024).
Several values for one entry are separate records, joined by “and”; a condition that tells them apart may be missing. Equal entries are not always repeated. Activity calls are given as the source filed them. The rule behind the calls is not given here.

Experiments:
[1] = system: Staphylococcus aureus; assay: Antimicrobial activity against Staphylococcus aureus MTCC 96 assessed as zone of inhibition by […]; type: functional
[2] = system: Bacillus subtilis; assay: Antimicrobial activity against Bacillus subtilis MTCC 441 assessed as zone of inhibition by […]; type: functional
[3] = system: Micrococcus luteus; assay: Antimicrobial activity against Micrococcus luteus ATCC 9341 assessed as zone of inhibition by […]; type: functional
[4] = system: Human alphaherpesvirus 1; assay: Antiviral activity against HSV-1 infected in African green monkey Vero cells by plaque reduction assay; type: functional, organism-based; details: Human alphaherpesvirus 1, Vero
[5] = system: Quadruplex DNA; assay: Stabilization of human G4 quadruplex telomeric22 DNA assessed as change in temperature at 1 uM by FRET assay; type: nucleic-acid assay
[6] = system: Quadruplex DNA; assay: Stabilization of human G4 quadruplex telomeric22 DNA assessed as change in temperature at 5 uM by FRET assay; type: nucleic-acid assay
[7] = system: Quadruplex DNA; assay: Stabilization of human G4 quadruplex telomeric22 DNA assessed as change in temperature at 10 uM by FRET assay; type: nucleic-acid assay
[8] = system: Quadruplex DNA; assay: Stabilization of human G4 quadruplex telomeric22 DNA assessed as change in temperature at 2 uM by FRET assay; type: nucleic-acid assay
[9] = system: dsDNA; assay: Stabilization of human duplex DNA assessed as change in temperature at 1 uM by FRET assay; type: nucleic-acid assay

Cc1ccc(C2CC(c3ccc(Oc4nc(Oc5ccc(C6=NN(C(N)=S)C(c7ccc(C)cc7)C6)cc5)nc(Oc5ccc(C6=NN(C(N)=S)C(c7ccc(C)cc7)C6)cc5)n4)cc3)=NN2C(N)=S)cc1 (stereo not drawn)
inhibition zone (IZ) [1]: 11 mm | inhibition zone (IZ) [2]: 9 mm | inhibition zone (IZ) [3]: 20 mm

O=C(/C=C/c1ccc(Cl)cc1Cl)c1ccc(Oc2nc(Oc3ccc(C(=O)/C=C/c4ccc(Cl)cc4Cl)cc3)nc(Oc3ccc(C(=O)/C=C/c4ccc(Cl)cc4Cl)cc3)n2)cc1
inhibition zone (IZ) [1]: 10 mm and 7 mm | inhibition zone (IZ) [2]: 7 mm and 8 mm | inhibition zone (IZ) [3]: 7 mm and 10 mm

COc1ccc(CNc2nc(NCc3ccc(OC)c(OC)c3OC)nc(NCc3ccc(OC)c(OC)c3OC)n2)c(OC)c1OC
EC50 [4]: 28 µM

COc1ccc(CNc2nc(NCc3ccc(OC)cc3)nc(NCc3ccc(OC)cc3)n2)cc1
EC50 [4]: > 100 µM

NC(=S)N1N=C(c2ccc(Oc3nc(Oc4ccc(C5=NN(C(N)=S)C(c6ccc([N+](=O)[O-])cc6)C5)cc4)nc(Oc4ccc(C5=NN(C(N)=S)C(c6ccc([N+](=O)[O-])cc6)C5)cc4)n3)cc2)CC1c1ccc([N+](=O)[O-])cc1 (stereo not drawn)
inhibition zone (IZ) [2]: 10 mm

CC(C)Nc1nc(NC(C)C)nc(NC(C)C)n1
EC50 [4]: 27.3 µM

CCN(CC)CCCn1c2ccccc2c2cc(-c3cc(-c4ccc5c(c4)c4ccccc4n5CCCN(CC)CC)cc(-c4ccc5c(c4)c4ccccc4n5CCCN(CC)CC)c3)ccc21
ΔTm [5]: 5.1 °C | ΔTm [6]: 8.4 °C | ΔTm [7]: 11.5 °C

CC(C)CNc1nc(NCC(C)C)nc(NCC(C)C)n1
EC50 [4]: 29.8 µM

c1ccc2c(c1)c1cc(-c3cc(-c4ccc5c(c4)c4ccccc4n5CCCN4CCCCC4)cc(-c4ccc5c(c4)c4ccccc4n5CCCN4CCCCC4)c3)ccc1n2CCCN1CCCCC1
ΔTm [5]: 6 °C | ΔTm [6]: 17 °C | ΔTm [7]: 19.9 °C

CNCCCC(=O)Nc1ccc(-c2cn(Cc3cc(Cn4cc(-c5ccc(NC(=O)CCCNC)cc5)nn4)cc(Cn4cc(-c5ccc(NC(=O)CCCNC)cc5)nn4)c3)nn2)cc1
ΔTm [5]: 2 °C | ΔTm [8]: 7 °C | ΔTm [9]: 0 °C

c1ccc2c(c1)c1cc(-c3cc(-c4ccc5c(c4)c4ccccc4n5CCCN4CCCC4)cc(-c4ccc5c(c4)c4ccccc4n5CCCN4CCCC4)c3)ccc1n2CCCN1CCCC1
ΔTm [5]: 2.6 °C | ΔTm [6]: 14.3 °C | ΔTm [7]: 17.5 °C

CC(C)(C)Oc1nc(N)nc(OC(C)(C)C)n1
EC50 [4]: > 100 µM

CCNCCC(=O)Nc1ccc(-c2cn(Cc3cc(Cn4cc(-c5ccc(NC(=O)CCNCC)cc5)nn4)cc(Cn4cc(-c5ccc(NC(=O)CCNCC)cc5)nn4)c3)nn2)cc1
ΔTm [9]: 0 °C

CC(C)COc1nc(N)nc(OCC(C)C)n1
EC50 [4]: > 100 µM

c1ccc2c(c1)c1cc(-c3cc(-c4ccc5c(c4)c4ccccc4n5CCN4CCCC4)cc(-c4ccc5c(c4)c4ccccc4n5CCN4CCCC4)c3)ccc1n2CCN1CCCC1
ΔTm [5]: 1.9 °C | ΔTm [6]: 10 °C | ΔTm [7]: 13 °C

CNCCC(=O)Nc1ccc(-c2cn(Cc3cc(Cn4cc(-c5ccc(NC(=O)CCNC)cc5)nn4)cc(Cn4cc(-c5ccc(NC(=O)CCNC)cc5)nn4)c3)nn2)cc1
ΔTm [9]: 0 °C

CCNCC(=O)Nc1ccc(-c2cn(Cc3cc(Cn4cc(-c5ccc(NC(=O)CNCC)cc5)nn4)cc(Cn4cc(-c5ccc(NC(=O)CNCC)cc5)nn4)c3)nn2)cc1
ΔTm [5]: 0 °C | ΔTm [8]: 1 °C | ΔTm [9]: 0 °C

O=C(/C=C/c1ccc(Cl)cc1)c1ccc(Oc2nc(Oc3ccc(C(=O)/C=C/c4ccc(Cl)cc4)cc3)nc(Oc3ccc(C(=O)/C=C/c4ccc(Cl)cc4)cc3)n2)cc1
inhibition zone (IZ) [2]: 7 mm | inhibition zone (IZ) [3]: 8 mm

Cc1ccc(CNc2nc(NCc3ccc(C)cc3)nc(NCc3ccc(C)cc3)n2)cc1
EC50 [4]: 38.7 µM

CCCCCNCC(=O)Nc1ccc(-c2cn(Cc3cc(Cn4cc(-c5ccc(NC(=O)CNCCCCC)cc5)nn4)cc(Cn4cc(-c5ccc(NC(=O)CNCCCCC)cc5)nn4)c3)nn2)cc1
ΔTm [5]: 0 °C | ΔTm [8]: 0 °C | ΔTm [9]: 0 °C

c1ccc2c(c1)[nH]c1ccc(-c3cc(-c4ccc5[nH]c6ccccc6c5c4)cc(-c4ccc5[nH]c6ccccc6c5c4)c3)cc12
ΔTm [5]: 1.1 °C | ΔTm [6]: 4 °C | ΔTm [7]: 2.6 °C

CCCCCCNCC(=O)Nc1ccc(-c2cn(Cc3cc(Cn4cc(-c5ccc(NC(=O)CNCCCCCC)cc5)nn4)cc(Cn4cc(-c5ccc(NC(=O)CNCCCCCC)cc5)nn4)c3)nn2)cc1
ΔTm [5]: 2 °C | ΔTm [8]: 2 °C | ΔTm [9]: 0 °C

CCNCCCC(=O)Nc1ccc(-c2cn(Cc3cc(Cn4cc(-c5ccc(NC(=O)CCCNCC)cc5)nn4)cc(Cn4cc(-c5ccc(NC(=O)CCCNCC)cc5)nn4)c3)nn2)cc1
ΔTm [5]: 1 °C | ΔTm [8]: 2 °C | ΔTm [9]: 0 °C

NC(=S)N1N=C(c2ccc(Oc3nc(Oc4ccc(C5=NN(C(N)=S)C(c6ccc(Cl)cc6)C5)cc4)nc(Oc4ccc(C5=NN(C(N)=S)C(c6ccc(Cl)cc6)C5)cc4)n3)cc2)CC1c1ccc(Cl)cc1 (stereo not drawn)
inhibition zone (IZ) [1]: 11 mm | inhibition zone (IZ) [2]: 10 mm | inhibition zone (IZ) [3]: 18 mm

c1ccc2c(c1)c1cc(-c3cc(-c4ccc5c(c4)c4ccccc4n5CCN4CCOCC4)cc(-c4ccc5c(c4)c4ccccc4n5CCN4CCOCC4)c3)ccc1n2CCN1CCOCC1
Activity [5]: inactive | Activity [6]: inactive | Activity [7]: inactive

CCN(CC)CCn1c2ccccc2c2cc(-c3cc(-c4ccc5c(c4)c4ccccc4n5CCN(CC)CC)cc(-c4ccc5c(c4)c4ccccc4n5CCN(CC)CC)c3)ccc21
ΔTm [5]: 2.8 °C | ΔTm [6]: 4.9 °C | ΔTm [7]: 3.3 °C

O=C(/C=C/c1cccc([N+](=O)[O-])c1)c1ccc(Oc2nc(Oc3ccc(C(=O)/C=C/c4cccc([N+](=O)[O-])c4)cc3)nc(Oc3ccc(C(=O)/C=C/c4cccc([N+](=O)[O-])c4)cc3)n2)cc1
inhibition zone (IZ) [2]: 7 mm | inhibition zone (IZ) [3]: 5 mm

CCCCCNCCC(=O)Nc1ccc(-c2cn(Cc3cc(Cn4cc(-c5ccc(NC(=O)CCNCCCCC)cc5)nn4)cc(Cn4cc(-c5ccc(NC(=O)CCNCCCCC)cc5)nn4)c3)nn2)cc1
ΔTm [5]: 1 °C | ΔTm [8]: 7 °C | ΔTm [9]: 0 °C

Cc1ccc(/C=C/C(=O)c2ccc(Oc3nc(Oc4ccc(C(=O)/C=C/c5ccc(C)cc5)cc4)nc(Oc4ccc(C(=O)/C=C/c5ccc(C)cc5)cc4)n3)cc2)cc1
inhibition zone (IZ) [1]: 7 mm | inhibition zone (IZ) [2]: 10 mm | inhibition zone (IZ) [3]: 11 mm

Nc1nc(OC(C(F)(F)F)C(F)(F)F)nc(OC(C(F)(F)F)C(F)(F)F)n1
EC50 [4]: > 100 µM

CCCOCCNCCC(=O)Nc1ccc(-c2cn(Cc3cc(Cn4cc(-c5ccc(NC(=O)CCNCCOCCC)cc5)nn4)cc(Cn4cc(-c5ccc(NC(=O)CCNCCOCCC)cc5)nn4)c3)nn2)cc1
ΔTm [5]: 0 °C | ΔTm [8]: 0 °C | ΔTm [9]: 0 °C

c1ccc2c(c1)c1cc(-c3cc(-c4ccc5c(c4)c4ccccc4n5CCCN4CCOCC4)cc(-c4ccc5c(c4)c4ccccc4n5CCCN4CCOCC4)c3)ccc1n2CCCN1CCOCC1
Activity [5]: inactive | Activity [6]: inactive | Activity [7]: inactive

CNCC(=O)Nc1ccc(-c2cn(Cc3cc(Cn4cc(-c5ccc(NC(=O)CNC)cc5)nn4)cc(Cn4cc(-c5ccc(NC(=O)CNC)cc5)nn4)c3)nn2)cc1
ΔTm [5]: 1 °C | ΔTm [8]: 1 °C | ΔTm [9]: 0 °C

NC(=S)N1N=C(c2ccc(Oc3nc(Oc4ccc(C5=NN(C(N)=S)C(c6cccc([N+](=O)[O-])c6)C5)cc4)nc(Oc4ccc(C5=NN(C(N)=S)C(c6cccc([N+](=O)[O-])c6)C5)cc4)n3)cc2)CC1c1cccc([N+](=O)[O-])c1 (stereo not drawn)
inhibition zone (IZ) [1]: 10 mm | inhibition zone (IZ) [2]: 13 mm | inhibition zone (IZ) [3]: 16 mm

COc1ccc(CNc2nc(NCc3ccc(OC)cc3OC)nc(NCc3ccc(OC)cc3OC)n2)c(OC)c1
EC50 [4]: > 100 µM

c1cc2c(cc1CNc1nc(NCc3ccc4c(c3)OCO4)nc(NCc3ccc4c(c3)OCO4)n1)OCO2
EC50 [4]: 5.4 µM

CCCCCCNCCC(=O)Nc1ccc(-c2cn(Cc3cc(Cn4cc(-c5ccc(NC(=O)CCNCCCCCC)cc5)nn4)cc(Cn4cc(-c5ccc(NC(=O)CCNCCCCCC)cc5)nn4)c3)nn2)cc1
ΔTm [5]: 4 °C | ΔTm [8]: 11 °C | ΔTm [9]: 0 °C

FC(F)(F)c1ccc(CNc2nc(NCc3ccc(C(F)(F)F)cc3)nc(NCc3ccc(C(F)(F)F)cc3)n2)cc1
EC50 [4]: 7.4 µM

COc1ccc(CNc2nc(NCc3ccc(OC)c(OC)c3)nc(NCc3ccc(OC)c(OC)c3)n2)cc1OC
EC50 [4]: 0.98 µM

c1ccc(CNc2nc(NCc3ccccc3)nc(NCc3ccccc3)n2)cc1
EC50 [4]: 13.2 µM

CCCOCCNCC(=O)Nc1ccc(-c2cn(Cc3cc(Cn4cc(-c5ccc(NC(=O)CNCCOCCC)cc5)nn4)cc(Cn4cc(-c5ccc(NC(=O)CNCCOCCC)cc5)nn4)c3)nn2)cc1
ΔTm [5]: 0 °C | ΔTm [8]: 0 °C | ΔTm [9]: 0 °C

CCCOCCNCCCC(=O)Nc1ccc(-c2cn(Cc3cc(Cn4cc(-c5ccc(NC(=O)CCCNCCOCCC)cc5)nn4)cc(Cn4cc(-c5ccc(NC(=O)CCCNCCOCCC)cc5)nn4)c3)nn2)cc1
ΔTm [5]: 0 °C | ΔTm [8]: 0 °C | ΔTm [9]: 0 °C

c1ccc2c(c1)c1cc(-c3cc(-c4ccc5c(c4)c4ccccc4n5CCN4CCCCC4)cc(-c4ccc5c(c4)c4ccccc4n5CCN4CCCCC4)c3)ccc1n2CCN1CCCCC1
Activity [5]: inactive | ΔTm [6]: 2.3 °C | ΔTm [7]: 4.9 °C

CCCCCNCCCC(=O)Nc1ccc(-c2cn(Cc3cc(Cn4cc(-c5ccc(NC(=O)CCCNCCCCC)cc5)nn4)cc(Cn4cc(-c5ccc(NC(=O)CCCNCCCCC)cc5)nn4)c3)nn2)cc1
ΔTm [5]: 2 °C | ΔTm [8]: 5 °C | ΔTm [9]: 0 °C

FC(F)CNc1nc(NCC(F)F)nc(NCC(F)F)n1
EC50 [4]: 24.4 µM

CCCCCCNCCCC(=O)Nc1ccc(-c2cn(Cc3cc(Cn4cc(-c5ccc(NC(=O)CCCNCCCCCC)cc5)nn4)cc(Cn4cc(-c5ccc(NC(=O)CCCNCCCCCC)cc5)nn4)c3)nn2)cc1
ΔTm [5]: 1 °C | ΔTm [8]: 1 °C | ΔTm [9]: 0 °C

Clc1ccc(CNc2nc(NCc3ccc(Cl)cc3)nc(NCc3ccc(Cl)cc3)n2)cc1
EC50 [4]: 11 µM
